Patent US11130902B2, “Gas hydrate inhibitors” (Lamberti SPA, priority 2016, dated 2021)

Assays:
[1] = Foaming power tests (Waring Blender); assay type: physicochemical; details: 30 seconds at 8000 rpm; for FS (foam stability, time to regenerate 50 mL of liquid), Test 4 / FV (foam volume), Test 4: 1% by weight solution in 4% sea salt water solution; for FS (foam stability, time to regenerate 50 mL of liquid), Test 3 / FV (foam volume), Test 3: 1% by weight solution in deionized water
Protocol: The foam volume (FV) and the foam stability (FS) were determined by stirring for 30 seconds at high speed (8000 rpm) with a Waring Blender 100 mL of a 1% by weight solution of the inhibitors in deionized water (Test 3) or in a 4% sea salt water solution (Test 4). The foamed composition is then transferred into a graded cylinder for the evaluation of the foam volume and the stability of the foam.
FV represent the volume in mL of foam at the end of the stirring. FS is the time in seconds required to the foamed solution to regenerate 50 mL of liquid. The longer the time, the higher the stability of the foam.

[2] = Corrosion tests, Linear Polarization Resistance (LPR); details: 10 ppm by volume inhibitor, synthetic brine, CO2, 200 ppm H2S, 80° C., compared to the blank; for % Protection, 1 hour: after 1 hour; for % Protection, 16 hours: after 16 hours
Protocol: The Linear Polarization Resistance (LPR) measurements were made with a Gamry Electrochemical Instrument system.
The LPR corrosion tests were conducted in 1 L Pyrex jacketed cells. 900 mL of synthetic brine (50/50 v/v 4.0% Seasalt water/Fresh Water) were loaded in the cell placed on a magnetic stirrer, deaerated overnight with CO2 and, finally, saturated with 200 ppm H2S gas just before testing. A clean C1018 Mild Steel rod was inserted in the corrosion cell assembly as sample probe. A graphite rod was used as the counter electrode. The temperature of the solution was brought to 80° C. for the duration of the tests and CO2 was continuously purged at a constant flow rate. The (Test 4) inhibitors were added at 10 ppm by volume of test solution.
The results are reported in Table 4 as % of protection after a fixed period of time compared to the blank, the test solution without any inhibitor, which is considered 100% corrosion.

[3] = Gas hydrate inhibition test (Rocking Cell RC5); set-up: key: FAIL: The ball is stuck and/or large agglomerations or solid crystals and/or visible deposits on the cell walls.; PASS: The ball is free; solid crystals might be present, but agglomerates (large or small) break up with agitation; details: 2% by weight inhibitor, 4° C., visual evaluation after 16 hours shut-in; for gas hydrate inhibition, Test 2: 20/80 v/v deionized water/diesel; for gas hydrate inhibition, Test 1: 50/50 v/v 4% wt seasalt water/diesel
Protocol: Gas Hydrate Inhibition Test
The performances of the gas hydrate inhibitors of the invention were evaluated with a Rocking Cell RC5 by PSL Systemtechnik.
Test Fluids • Hydrocarbon: Diesel • Aq. Phase: 4% wt seasalt water or deionized water • Gas: Mix of methane, ethane, propane and butane (various isomers)
The sapphire test cells, containing a stainless steel ball, were filled with the fluids (see Table 1) and 2% by weight of inhibitor and pressurized with the gas mixture.
Each cell was the subjected to a cycle of cooling and rocking consisting of three steps: 1) flowing condition, 2) shut-in and 3) re-start flowing condition. • 1) The pressurized cells were cooled down to 4° C. over a period of 5 hours while rocking. After reaching 4° C., the cells were rocked for 12 hours. • 2) The rocking was stopped and the test cells were kept in horizontal position (shut-in) for 16 hours. • 3) At the end of the shut-in period, rocking was re-started for 4 hours. Finally the cells were heated back up to 20° C.
At the beginning of the third step, the content of the cells was visually evaluated.
Each cycle was replicated three times and the results registered.
The results of the gas hydrate inhibition tests (Table 2) are reported according to the following scale: • FAIL: The ball is stuck and/or large agglomerations or solid crystals and/or visible deposits on the cell walls. • PASS: The ball is free; solid crystals might be present, but agglomerates (large or small) break up with agitation.

Row | FS (foam stability, time to regenerate 50 mL of liquid), Test 4 [1] | FV (foam volume), Test 4 [1] | FS (foam stability, time to regenerate 50 mL of liquid), Test 3 [1] | FV (foam volume), Test 3 [1] | Substance | % Protection, 1 hour [2] | % Protection, 16 hours [2] | gas hydrate inhibition, Test 2 [3] | gas hydrate inhibition, Test 1 [3]
1 | 59 s | 172 mL | 97 s | 210 mL | N,N-dibutyl-N-ethyl-cocooxyethyl ammonium chloride | 78.9% | 87.9% |  | 
2 | 118 s | 230 mL | 180 s | 320 mL | N,N-dibutyl-N-ethyl-soyaoxyethyl ammonium ethyl sulfate |  |  |  | 
3 | 46 s | 160 mL | 70 s | 185 mL | N,N-dibutyl-N-ethyl-cocooxyethyl ammonium ethyl sulfate | 81.4% | 90.2% | PASS | PASS
4 | 215 s | 430 mL | 260 s | 480 mL | benzylcocodimethyl ammonium chloride | 79.7% | 89.5% | FAIL | FAIL
